Strand notation (5' to 3'): a small letter for the sugar, then the base; units joined by * are phosphorothioate-linked, units joined directly phosphodiester-linked; [ ] holds rarer units or linkages, { } end groups; capitals alone tell only the bases. e = 2'-O-(2-methoxyethyl) (MOE); [5mC] = 5-methylcytosine; d = 2'-deoxy (DNA)
system: DGAT2 mRNA; experiment: Antisense inhibition of DGAT2 in A10 cells, 75 nM (Table 81); type: cell-based, rat; settings: approximately 24 hours
Experimental: Short antisense compounds targeted to a DGAT2 nucleic acid were tested for their effects on DGAT2 mRNA in vitro. Cultured A10 cells in a 96-well plate were treated with 75 nM of short antisense compound. After a treatment period of approximately 24 hours, RNA was isolated from the cells and DGAT2 mRNA levels were measured by quantitative real-time PCR, as described herein. DGAT2 mRNA levels were adjusted according to total RNA content as measured by RIBOGREEN®. Results are presented as percent inhibition of DGAT2, relative to untreated control cells in Table 81.

In order of falling “% Control” value:
1. 372578 (antisense eT*eG*dT*dG*dT*d[5mC]*dT*dT*d[5mC]*dA*d[5mC]*d[5mC]*eA*eG) [compound 372578]  59 % Control
2. 372563 (antisense eA*eG*d[5mC]*d[5mC]*dA*dG*dG*dT*dG*dA*d[5mC]*dA*eG*eA) [compound 372563]  48 % Control
3. 372580 (antisense eG*eG*dT*dT*dG*dT*dG*dT*dG*dT*d[5mC]*dT*eT*e[5mC]) [compound 372580]  48 % Control
4. 372586 (antisense eG*eT*dT*d[5mC]*d[5mC]*dT*dG*dG*dT*dG*dG*dT*e[5mC]*eA) [compound 372586]  40 % Control

system: rat DGAT2 mRNA; experiment: Dose-dependent inhibition of DGAT2 in A10 cells (Tables 82, 83); type: cell-based; settings: 0.62 nM (Table 83)
Experimental: Additional short antisense compounds targeted to DGAT2 mRNA were tested in vitro in a dose-response experiment. A10 cells were prepared as described above and treated with 6.25, 12.5, 25.0, 50.0, 100.0, and 200.0 nM short antisense compounds to determine if DGAT2 inhibition occurs in a dose-dependent manner. […] Results are presented as percent inhibition, relative to untreated control cells.
Additional short antisense compounds targeted to DGAT2 mRNA were tested in vitro. A10 cells were prepared as described above and treated with 0.62, 1.85, 5.56, 16.67, 50.0, and 150.0 nM short antisense compounds to determine if DGAT2 inhibition occurs in a dose-dependent manner. DGAT2 mRNA was measured using quantitative real-time PCR, as described herein. […] Results are presented as percent inhibition of rat DGAT2, relative to untreated control cells.

In order of rising “percent inhibition of rat DGAT2” value:
1. 372563 (antisense eA*eG*d[5mC]*d[5mC]*dA*dG*dG*dT*dG*dA*d[5mC]*dA*eG*eA) [compound 372563]  0%
2. 372578 (antisense eT*eG*dT*dG*dT*d[5mC]*dT*dT*d[5mC]*dA*d[5mC]*d[5mC]*eA*eG) [compound 372578]  0%
3. 372580 (antisense eG*eG*dT*dT*dG*dT*dG*dT*dG*dT*d[5mC]*dT*eT*e[5mC]) [compound 372580]  0%
4. 372586 (antisense eG*eT*dT*d[5mC]*d[5mC]*dT*dG*dG*dT*dG*dG*dT*e[5mC]*eA) [compound 372586]  0%

same assay, conditions: 1.85 nM (Table 83)

In order of falling “percent inhibition of rat DGAT2” value:
1. 372580 (antisense eG*eG*dT*dT*dG*dT*dG*dT*dG*dT*d[5mC]*dT*eT*e[5mC]) [compound 372580]  5%
2. 372563 (antisense eA*eG*d[5mC]*d[5mC]*dA*dG*dG*dT*dG*dA*d[5mC]*dA*eG*eA) [compound 372563]  0%
3. 372578 (antisense eT*eG*dT*dG*dT*d[5mC]*dT*dT*d[5mC]*dA*d[5mC]*d[5mC]*eA*eG) [compound 372578]  0%
4. 372586 (antisense eG*eT*dT*d[5mC]*d[5mC]*dT*dG*dG*dT*dG*dG*dT*e[5mC]*eA) [compound 372586]  0%

same assay, conditions: 5.56 nM (Table 83)

In order of rising “percent inhibition of rat DGAT2” value:
1. 372563 (antisense eA*eG*d[5mC]*d[5mC]*dA*dG*dG*dT*dG*dA*d[5mC]*dA*eG*eA) [compound 372563]  0%
2. 372578 (antisense eT*eG*dT*dG*dT*d[5mC]*dT*dT*d[5mC]*dA*d[5mC]*d[5mC]*eA*eG) [compound 372578]  0%
3. 372586 (antisense eG*eT*dT*d[5mC]*d[5mC]*dT*dG*dG*dT*dG*dG*dT*e[5mC]*eA) [compound 372586]  0%
4. 372580 (antisense eG*eG*dT*dT*dG*dT*dG*dT*dG*dT*d[5mC]*dT*eT*e[5mC]) [compound 372580]  5%

same assay, conditions: 6.25 nM (Table 82)

With “372586 (antisense eG*eT*dT*d[5mC]*d[5mC]*dT*dG*dG*dT*dG*dG*dT*e[5mC]*eA) [compound 372586]” the “percent inhibition of DGAT2” value was 19%.

same assay, conditions: 12.5 nM (Table 82)

With “372586 (antisense eG*eT*dT*d[5mC]*d[5mC]*dT*dG*dG*dT*dG*dG*dT*e[5mC]*eA) [compound 372586]” the “percent inhibition of DGAT2” value was 0%.

same assay, conditions: 16.67 nM (Table 83)

In order of falling “percent inhibition of rat DGAT2” value:
1. 372580 (antisense eG*eG*dT*dT*dG*dT*dG*dT*dG*dT*d[5mC]*dT*eT*e[5mC]) [compound 372580]  3%
2. 372578 (antisense eT*eG*dT*dG*dT*d[5mC]*dT*dT*d[5mC]*dA*d[5mC]*d[5mC]*eA*eG) [compound 372578]  2%
3. 372563 (antisense eA*eG*d[5mC]*d[5mC]*dA*dG*dG*dT*dG*dA*d[5mC]*dA*eG*eA) [compound 372563]  1%
4. 372586 (antisense eG*eT*dT*d[5mC]*d[5mC]*dT*dG*dG*dT*dG*dG*dT*e[5mC]*eA) [compound 372586]  0%

same assay, conditions: 50.0 nM (Table 82)

For “372586 (antisense eG*eT*dT*d[5mC]*d[5mC]*dT*dG*dG*dT*dG*dG*dT*e[5mC]*eA) [compound 372586]”, the “percent inhibition of DGAT2” value was 22%.

same assay, conditions: 50 nM (Table 83)

In order of falling “percent inhibition of rat DGAT2” value:
1. 372580 (antisense eG*eG*dT*dT*dG*dT*dG*dT*dG*dT*d[5mC]*dT*eT*e[5mC]) [compound 372580]  16%
2. 372578 (antisense eT*eG*dT*dG*dT*d[5mC]*dT*dT*d[5mC]*dA*d[5mC]*d[5mC]*eA*eG) [compound 372578]  7%
3. 372586 (antisense eG*eT*dT*d[5mC]*d[5mC]*dT*dG*dG*dT*dG*dG*dT*e[5mC]*eA) [compound 372586]  7%
4. 372563 (antisense eA*eG*d[5mC]*d[5mC]*dA*dG*dG*dT*dG*dA*d[5mC]*dA*eG*eA) [compound 372563]  4%

same assay, conditions: 100.0 nM (Table 82)

“372586 (antisense eG*eT*dT*d[5mC]*d[5mC]*dT*dG*dG*dT*dG*dG*dT*e[5mC]*eA) [compound 372586]” was tested, and the “percent inhibition of DGAT2” value was 45%.

same assay, conditions: 150 nM (Table 83)

In order of rising “percent inhibition of rat DGAT2” value:
1. 372578 (antisense eT*eG*dT*dG*dT*d[5mC]*dT*dT*d[5mC]*dA*d[5mC]*d[5mC]*eA*eG) [compound 372578]  42%
2. 372580 (antisense eG*eG*dT*dT*dG*dT*dG*dT*dG*dT*d[5mC]*dT*eT*e[5mC]) [compound 372580]  42%
3. 372563 (antisense eA*eG*d[5mC]*d[5mC]*dA*dG*dG*dT*dG*dA*d[5mC]*dA*eG*eA) [compound 372563]  46%
4. 372586 (antisense eG*eT*dT*d[5mC]*d[5mC]*dT*dG*dG*dT*dG*dG*dT*e[5mC]*eA) [compound 372586]  55%

same assay, conditions: 200.0 nM (Table 82)

For “372586 (antisense eG*eT*dT*d[5mC]*d[5mC]*dT*dG*dG*dT*dG*dG*dT*e[5mC]*eA) [compound 372586]”, the “percent inhibition of DGAT2” value was 77%.

— patent US8372967B2, “Compounds and methods for modulating expression of GCCR” (Isis Pharmaceuticals, Inc., priority 2006, dated 2013)
